Laboratory results taken from patent US20060035932A1, “N-aryl piperidine compounds” (Propharmacon, Inc., priority 2004, published 2006).
Like-named read-outs stand apart in the source and are kept apart here.

Target: T1, binding of recombinant macrophage-tropic strain JR-FL gp120 to immobilized recombinant CD4 (Homo sapiens, UniProt P01730)
T1 construct: human CD4 (comprised of amino acids 1-371); made in house; host or cells: Sf9 insect cells, baculovirus vector pAcGP67
Assay: gp120/CD4 binding assay (DELFIA competition assay, europium-labeled gp120, immobilized CD4)
Design: species or system HIV (strain JR-FL) gp120; human CD4
Text: Coding sequences for gp120 (macrophage-tropic strain JR-FL) and human CD4 (comprised of amino acids 1-371) were sub-cloned into the commercial baculovirus expression vector pAcGP67 (Pharmingen, San Diego, Calif.). The recombinant vectors were then transfected into Sf9 insect cell monolayers using the Baculogold™ transfection system. Clones were isolated by the method of limited dilution.
For large-scale production, cell culture was scaled up in 8-liter spinner flasks of Sf9 cells adapted to serum-free growth conditions, then infected by baculovirus using an MOI of 5 and the cell supernatant was harvested 72 hours later. The yields of recombinant protein expressed for both proteins were similar; 2-5 μg/ml (micrograms per milliliter). Recombinant CD4 protein was immunopurified using an affinity-column of immobilized Anti-CD4 D1 mAb Leu3a (Dalgleish, A. G., et al., Lancet, 2:1047-1050 1987) and gp120 protein was immunopurified using a resin coupled with Propharmacon monoclonal antibody PPC3G6 produced in-house (mouse IgG2) against Sf9-produced gp120. Protein purity and molecular weight were assessed using reduced and non-reduced SDS PAGE.
The identification of inhibitors was carried out by a competition assay utilizing recombinant macrophage-tropic strain JR-FL gp120, which competes with a prospective inhibitor to bind to immobilized recombinant CD4. The amount of gp12O binding to CD4 was quantitated by DELFIA “Dissociation Enhanced Lanthanide Fluoroimmunoassay” (Paterson, N., et al., Ann. Clin Biochem., 22, 606-611, 1985), having previously labeled the gp120 with a commercial europium chelate (Wallac Oy, Turku, Finland). The final readout uses time-resolved fluorescence to quantitate the amount of dissociated europium metal present. Binding of labeled gp120 was saturable and yielded an IC50 of 3 nM, which approximates literature values (Lasky, L. A., et al., Cell, 50, 975-985). In addition, the binding of gp120 was inhibited by Leu3a with an IC50 of 2 μg/ml. […] The assay is optionally adapted to 384-well format for screening purposes.

[1] = gp120/CD4 binding assay, read-out: Activity (IC50 level in the gp120/CD4 binding assay)

| Structure (SMILES) | IC50 [1] [nM] | further results |
| --- | --- | --- |
| O=C(NCCCCC(NS(=O)(=O)c1cnc(N2CCC(CCCC3CCN(S(=O)(=O)c4cc(Br)c(Cl)s4)CC3)CC2)c(Br)c1)C(=O)O)OCc1ccccc1Cl (stereo not shown) | < 1000 | – |
| O=C(NO)[C@H]1CC[C@H](NS(=O)(=O)c2ccc(N3CCC(CCCC4CCN(S(=O)(=O)c5cc(Br)c(Cl)s5)CC4)CC3)c(Cl)c2)C1 | > 10000 | – |
| O=S(=O)(c1cnc(N2CCC(CCCC3CCN(S(=O)(=O)c4c(Cl)ccc5nonc45)CC3)CC2)c(Br)c1)N1CCCNCC1 | > 10000 | – |
| O=C(O)[C@H](Cc1ccccc1)NS(=O)(=O)c1cnc(N2CCC(CCCCCCCC3CCN(S(=O)(=O)c4cc(Br)c(Cl)s4)CC3)CC2)c(Br)c1 | < 1000 | – |
| CSCC[C@H](NS(=O)(=O)c1ccc(N2CCC(CCCC3CCN(S(=O)(=O)c4ccc(C(C)(C)C)cc4)CC3)CC2)c(Cl)c1)C(=O)O | 1000 to 10000 | – |
| O=C(O)CC1Cc2ccccc2CN1S(=O)(=O)c1cnc(N2CCC(CCCCC3CCN(S(=O)(=O)c4cc(Br)c(Cl)s4)CC3)CC2)c(Br)c1 (stereo not shown) | < 1000 | – |
| O=C(O)C1=CC(=C(c2ccc(O)c(C(=O)O)c2)c2ccc(O)c(C(=O)O)c2)C=CC1=O [aurintricarboxylic acid, reference compound] | – | IC50 (control substances used in optimizing the binding assay, read-out: IC50, inhibition of binding of gp120 to immobilized CD4 (converted)): 1180 nM |
| O=C(O)[C@H](Cc1ccccc1)NS(=O)(=O)c1ccc(N2CCC(CCCC3CCN(S(=O)(=O)c4cc(Br)c(Cl)s4)CC3)CC2)c(Cl)c1 | 1000 to 10000 | – |
| O=C(O)[C@H](Cc1ccccc1)NS(=O)(=O)c1cnc(N2CCC(CCCCC3CCN(S(=O)(=O)c4cc(Br)c(Cl)s4)CC3)CC2)c(C(F)(F)F)c1 | 1000 to 10000 | – |
| O=C(O)C[C@@H]1CCCN1S(=O)(=O)c1cnc(N2CCC(CCCC3CCN(S(=O)(=O)c4cc(Br)c(Cl)s4)CC3)CC2)c(Br)c1 | 1000 to 10000 | – |
| O=C(O)[C@H](Cc1ccccc1)NS(=O)(=O)c1cnc(N2CCC(CCCCCC3CCN(S(=O)(=O)c4cc(Br)c(Cl)s4)CC3)CC2)c(Br)c1 | < 1000 | – |
| O=C(O)[C@@H]1CC[C@H](NS(=O)(=O)c2ccc(N3CCC(CCCC4CCN(S(=O)(=O)c5ccc(F)cc5)CC4)CC3)c(Cl)c2)C1 | > 10000 | – |
| CC(C)CCC[C@@H](C)[C@H]1CC[C@H]2[C@@H]3CC[C@H]4C[C@@H](CCC=C(c5cc(Cl)c(O)c(C(=O)O)c5)c5cc(Cl)c(O)c(C(=O)O)c5)CC[C@]4(C)[C@H]3CC[C@]12C [cosalane, reference compound] | – | IC50, inhibition of binding of gp120 to immobilized CD4 (control substances used in optimizing the binding assay): 4.3 µg/mL |
| O=C(O)CN(CCc1ccc(F)cc1)S(=O)(=O)c1cnc(N2CCC(CCCC3CCN(S(=O)(=O)c4cc(Br)c(Cl)s4)CC3)CC2)c(Br)c1 | < 1000 | – |
| O=C(O)C1(NS(=O)(=O)c2cnc(N3CCC(CCCC4CCN(S(=O)(=O)c5cc(Br)c(Cl)s5)CC4)CC3)c(Br)c2)CCCCC1 | < 1000 | – |
| O=C(O)[C@H](Cc1ccc(Cl)cc1)NS(=O)(=O)c1cnc(N2CCC(CCCCCC3CCN(S(=O)(=O)c4cc(Br)c(Cl)s4)CC3)CC2)c(Br)c1 | 1000 to 10000 | – |
